Experimental data as given in article PMC9366271 (Journal of medicinal chemistry, 2018).
“Also recorded” adds a separate entry of the source.

How the values were obtained:
D2R [1] = biological target: D2R (Homo sapiens, UniProt P14416); assay: Dynamic mass redistribution; type: cell-based; conditions: 500 nM bivalent compounds or 1 μM spiperone for 30 min, then 100 nM sumanirole
D2R [2] = biological target: D2R (Ovis aries, UniProt A0ACI6R699); type: binding, sheep

D2R (Homo sapiens, UniProt P14416), sequence (P14416 whole entry): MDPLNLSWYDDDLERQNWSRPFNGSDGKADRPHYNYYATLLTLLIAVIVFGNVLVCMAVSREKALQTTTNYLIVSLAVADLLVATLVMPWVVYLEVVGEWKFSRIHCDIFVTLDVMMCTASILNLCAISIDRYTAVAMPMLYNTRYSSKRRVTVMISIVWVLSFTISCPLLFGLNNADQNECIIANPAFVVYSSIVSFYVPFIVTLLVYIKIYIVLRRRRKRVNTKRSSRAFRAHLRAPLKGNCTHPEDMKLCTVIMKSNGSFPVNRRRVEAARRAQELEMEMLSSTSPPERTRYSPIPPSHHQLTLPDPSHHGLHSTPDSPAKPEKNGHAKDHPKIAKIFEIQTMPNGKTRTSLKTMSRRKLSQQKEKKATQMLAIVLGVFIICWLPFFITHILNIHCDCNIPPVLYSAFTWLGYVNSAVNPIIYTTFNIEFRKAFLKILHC

Compound	magnitude of the signaling by sumanirole in presence of ligand (DMR) (D2R [1])	effect of TAT-TM6 peptides on binding (D2R [2]; TAT-TM6 peptides of D2R and A2AR, native tissue)	decrease of binding by disturber peptide TAT-TM6 (D2R [2]; TAT-TM6 of D2R vs no peptide) [fold]
O=C(CCCN1CCC2(CC1)C(=O)NCN2c1ccccc1)c1ccc(F)cc1 [spiperone, reference compound]	significantly decreased		
COC(=O)CN(CC(=O)NCCOCCOCCNC(C)=O)CC(=O)NCCOCCOCCNC(=O)CCC(=O)Nc1ccc(CCN2CN(c3ccccc3)C3(CCN(CCCC(=O)c4ccc(F)cc4)CC3)C2=O)cc1 [Compound 15, Methyl 3-(2,13-dioxo-6,9-dioxa-3,12-diazatetradecyl)-19-((4-(2-(8-(4-(4-fluorophenyl)-4-oxobutyl)-4-oxo-1-phenyl-1,3,8-triazaspiro[4.5]decan-3-yl)ethyl)phenyl)amino)-5,16,19-trioxo-9,12-dioxa-3,6,15-triazanonadecanoate]		had no effect; also recorded: Neither TAT-TM6 peptide of D2R nor A2R influenced the binding	
COC(=O)CN(CC(=O)NCCCOCCOCCOCCCNC(=O)CCC(=O)Nc1ccc(CCN2CN(c3ccccc3)C3(CCN(CCCC(=O)c4ccc(F)cc4)CC3)C2=O)cc1)CC(=O)NCCCOCCOCCOCCCNC(=O)CCC(=O)Nc1ccc(CCN2CN(c3ccccc3)C3(CCN(CCCC(=O)c4ccc(F)cc4)CC3)C2=O)cc1 [Compound 12, Methyl 24-((4-(2-(8-(4-(4-fluorophenyl)-4-oxobutyl)-4-oxo-1-phenyl-1,3,8-triazaspiro[4.5]decan-3-yl)ethyl)phenyl)amino)-3-(21-((4-(2-(8-(4-(4-fluorophenyl)-4-oxobutyl)-4-oxo-1-phenyl-1,3,8-triazaspiro[4.5]decan-3-yl)ethyl)phenyl)amino)-2,18,21-trioxo-7,10,13-trioxa-3,17-diazahenicosyl)-5,21,24-trioxo-10,13,16-trioxa-3,6,20-triazatetracosanoate]	significantly decreased		
COC(=O)CN(CC(=O)NCCOCCOCCNC(=O)CCC(=O)Nc1ccc(CCN2CN(c3ccccc3)C3(CCN(CCCC(=O)c4ccc(F)cc4)CC3)C2=O)cc1)CC(=O)NCCOCCOCCNC(=O)CCC(=O)Nc1ccc(CCN2CN(c3ccccc3)C3(CCN(CCCC(=O)c4ccc(F)cc4)CC3)C2=O)cc1 [Compound 13, Methyl 19-((4-(2-(8-(4-(4-fluorophenyl)-4-oxobutyl)-4-oxo-1-phenyl-1,3,8-triazaspiro[4.5]decan-3-yl)ethyl)phenyl)amino)-3-(16-((4-(2-(8-(4-(4-fluorophenyl)-4-oxobutyl)-4-oxo-1-phenyl-1,3,8-triazaspiro[4.5]decan-3-yl)ethyl)phenyl)amino)-2,13,16-trioxo-6,9-dioxa-3,12-diazahexadecyl)-5,16,19-trioxo-9,12-dioxa-3,6,15-triazanonadecanoate]	significantly decreased		52
